Assay results: patent publication US20210070748A1, “INHIBITORS OF BRUTONS TYROSINE KINASE” (Pharmacyclics LLC, priority 2015, published 2021)

What was measured:
Assay type in all cases: biochemical
[1] = target: SRC (Homo sapiens, UniProt P12931); assay: Inhibition of a panel of kinases, in vitro HotSpot kinase assay: SRC; conditions: D-compounds panel data; 1 μM ATP
Experimental: (§1) The degree of inhibition of a panel of kinases is determined using the in vitro HotSpot kinase assay (purified enzymes, ^33P-ATP, an appropriate substrate and 1 μM ATP).

[2] = target: T1, JAK3 (Homo sapiens, UniProt P52333); assay: Inhibition of a panel of kinases, in vitro HotSpot kinase assay: JAK3; conditions: D-compounds panel data; 1 μM ATP; read-out: IC50 JAK3
T1 sequence (P52333 1-1124): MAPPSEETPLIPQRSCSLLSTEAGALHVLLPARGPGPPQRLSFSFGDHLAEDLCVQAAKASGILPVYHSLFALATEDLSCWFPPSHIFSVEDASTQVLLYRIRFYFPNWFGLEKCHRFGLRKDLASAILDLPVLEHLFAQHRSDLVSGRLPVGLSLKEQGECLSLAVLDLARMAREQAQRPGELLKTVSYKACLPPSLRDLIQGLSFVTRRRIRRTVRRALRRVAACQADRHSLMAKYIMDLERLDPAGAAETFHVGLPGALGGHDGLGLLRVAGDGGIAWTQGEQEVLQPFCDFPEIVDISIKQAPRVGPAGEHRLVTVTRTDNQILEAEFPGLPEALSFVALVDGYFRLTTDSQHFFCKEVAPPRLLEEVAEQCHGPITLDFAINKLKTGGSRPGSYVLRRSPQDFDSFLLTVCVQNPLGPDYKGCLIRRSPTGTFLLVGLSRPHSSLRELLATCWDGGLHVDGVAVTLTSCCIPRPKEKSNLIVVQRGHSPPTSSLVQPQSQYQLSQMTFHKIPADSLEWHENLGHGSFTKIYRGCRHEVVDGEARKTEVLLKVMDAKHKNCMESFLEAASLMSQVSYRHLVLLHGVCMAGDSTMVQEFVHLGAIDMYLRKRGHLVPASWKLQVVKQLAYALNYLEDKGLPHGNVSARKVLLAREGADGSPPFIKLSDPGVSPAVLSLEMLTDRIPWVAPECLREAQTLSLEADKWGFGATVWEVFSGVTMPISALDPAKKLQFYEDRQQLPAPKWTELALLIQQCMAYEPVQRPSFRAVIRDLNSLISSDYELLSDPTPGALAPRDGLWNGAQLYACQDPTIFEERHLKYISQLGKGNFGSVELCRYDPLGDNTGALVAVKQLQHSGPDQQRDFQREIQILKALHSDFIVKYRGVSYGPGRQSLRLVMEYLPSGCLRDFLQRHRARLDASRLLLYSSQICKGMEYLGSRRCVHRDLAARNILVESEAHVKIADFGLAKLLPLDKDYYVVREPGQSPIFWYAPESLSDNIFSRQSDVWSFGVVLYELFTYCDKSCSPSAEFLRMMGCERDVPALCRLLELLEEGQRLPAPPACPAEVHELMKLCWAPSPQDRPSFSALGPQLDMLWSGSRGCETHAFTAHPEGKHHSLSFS

[3] = target: EGFR (Homo sapiens, UniProt P00533); assay: Inhibition of a panel of kinases, in vitro HotSpot kinase assay: EGFR; conditions: D-compounds panel data; 1 μM ATP
EGFR, sequence (P00533 25-1210): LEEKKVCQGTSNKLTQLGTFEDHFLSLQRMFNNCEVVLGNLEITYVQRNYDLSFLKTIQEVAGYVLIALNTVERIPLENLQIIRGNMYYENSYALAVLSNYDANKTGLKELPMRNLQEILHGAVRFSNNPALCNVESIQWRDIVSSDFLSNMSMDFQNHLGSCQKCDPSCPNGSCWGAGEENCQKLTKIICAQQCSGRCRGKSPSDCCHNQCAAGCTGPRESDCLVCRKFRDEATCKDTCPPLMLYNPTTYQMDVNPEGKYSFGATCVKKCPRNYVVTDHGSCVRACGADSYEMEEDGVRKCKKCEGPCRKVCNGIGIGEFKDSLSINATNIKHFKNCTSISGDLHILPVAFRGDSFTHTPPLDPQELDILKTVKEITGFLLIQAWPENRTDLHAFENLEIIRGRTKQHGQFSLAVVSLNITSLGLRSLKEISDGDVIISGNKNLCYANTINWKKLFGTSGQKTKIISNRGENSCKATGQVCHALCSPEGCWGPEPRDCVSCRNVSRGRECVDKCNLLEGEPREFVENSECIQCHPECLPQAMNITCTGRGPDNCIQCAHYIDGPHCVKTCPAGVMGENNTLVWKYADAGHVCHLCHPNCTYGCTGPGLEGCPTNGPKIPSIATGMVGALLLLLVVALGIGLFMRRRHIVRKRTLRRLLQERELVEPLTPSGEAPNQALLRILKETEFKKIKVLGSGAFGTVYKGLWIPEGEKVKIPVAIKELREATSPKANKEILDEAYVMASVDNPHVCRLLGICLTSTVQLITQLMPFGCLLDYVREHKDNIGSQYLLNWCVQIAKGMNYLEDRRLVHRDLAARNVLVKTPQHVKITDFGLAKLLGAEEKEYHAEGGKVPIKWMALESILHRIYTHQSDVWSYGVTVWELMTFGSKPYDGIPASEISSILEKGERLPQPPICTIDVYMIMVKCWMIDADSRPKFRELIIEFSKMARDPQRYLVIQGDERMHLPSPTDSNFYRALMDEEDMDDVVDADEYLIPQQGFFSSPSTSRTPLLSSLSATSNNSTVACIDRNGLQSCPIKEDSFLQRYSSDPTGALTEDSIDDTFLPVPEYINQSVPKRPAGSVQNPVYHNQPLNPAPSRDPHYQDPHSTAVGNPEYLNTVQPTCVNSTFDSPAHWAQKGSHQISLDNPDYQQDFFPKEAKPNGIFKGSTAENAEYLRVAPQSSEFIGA
Experimental: as §1

[4] = target: T2, TEC (Homo sapiens, UniProt P42680); assay: Inhibition of a panel of kinases, in vitro HotSpot kinase assay: TEC; conditions: D-compounds panel data; 1 μM ATP
T2 sequence (P42680 1-631): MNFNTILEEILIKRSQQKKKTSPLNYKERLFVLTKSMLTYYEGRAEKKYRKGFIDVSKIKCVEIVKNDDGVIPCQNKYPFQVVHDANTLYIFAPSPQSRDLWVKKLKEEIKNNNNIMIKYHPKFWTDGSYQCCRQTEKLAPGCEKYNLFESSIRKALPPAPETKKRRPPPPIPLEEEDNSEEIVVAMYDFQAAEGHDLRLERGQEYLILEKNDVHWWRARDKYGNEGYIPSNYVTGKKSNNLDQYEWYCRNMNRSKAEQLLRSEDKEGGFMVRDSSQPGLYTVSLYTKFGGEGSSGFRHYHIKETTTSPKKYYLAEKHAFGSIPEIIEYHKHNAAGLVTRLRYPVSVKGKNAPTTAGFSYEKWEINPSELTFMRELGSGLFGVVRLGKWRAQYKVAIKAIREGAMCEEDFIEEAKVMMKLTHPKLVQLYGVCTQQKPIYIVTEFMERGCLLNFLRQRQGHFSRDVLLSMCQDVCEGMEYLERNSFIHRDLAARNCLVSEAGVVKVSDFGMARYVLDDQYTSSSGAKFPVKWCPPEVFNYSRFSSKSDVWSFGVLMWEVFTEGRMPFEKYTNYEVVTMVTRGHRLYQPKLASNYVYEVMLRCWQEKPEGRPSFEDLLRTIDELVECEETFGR
Experimental: as §1

[5] = target: T3, ITK (Homo sapiens, UniProt Q08881); assay: Inhibition of a panel of kinases, in vitro HotSpot kinase assay: ITK; conditions: D-compounds panel data; 1 μM ATP
T3 sequence (Q08881 1-620): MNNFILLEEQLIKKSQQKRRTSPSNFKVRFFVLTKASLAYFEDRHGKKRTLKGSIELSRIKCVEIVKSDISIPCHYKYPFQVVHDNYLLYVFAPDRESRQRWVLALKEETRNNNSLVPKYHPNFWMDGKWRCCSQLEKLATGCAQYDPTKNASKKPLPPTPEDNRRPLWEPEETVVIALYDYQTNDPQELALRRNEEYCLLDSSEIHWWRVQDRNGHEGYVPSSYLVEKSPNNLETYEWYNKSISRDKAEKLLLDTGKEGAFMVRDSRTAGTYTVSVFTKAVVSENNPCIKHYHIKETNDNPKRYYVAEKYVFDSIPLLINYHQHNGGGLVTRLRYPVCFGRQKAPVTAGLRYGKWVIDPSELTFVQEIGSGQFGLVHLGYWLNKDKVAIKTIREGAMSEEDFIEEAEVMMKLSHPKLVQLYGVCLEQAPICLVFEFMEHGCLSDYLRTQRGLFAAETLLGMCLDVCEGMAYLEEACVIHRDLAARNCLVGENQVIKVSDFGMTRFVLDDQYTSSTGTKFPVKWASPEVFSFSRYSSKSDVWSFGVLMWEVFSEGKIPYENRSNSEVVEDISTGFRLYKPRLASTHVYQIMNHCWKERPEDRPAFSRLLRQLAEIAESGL
Experimental: as §1

SRC, sequence (P12931 whole entry): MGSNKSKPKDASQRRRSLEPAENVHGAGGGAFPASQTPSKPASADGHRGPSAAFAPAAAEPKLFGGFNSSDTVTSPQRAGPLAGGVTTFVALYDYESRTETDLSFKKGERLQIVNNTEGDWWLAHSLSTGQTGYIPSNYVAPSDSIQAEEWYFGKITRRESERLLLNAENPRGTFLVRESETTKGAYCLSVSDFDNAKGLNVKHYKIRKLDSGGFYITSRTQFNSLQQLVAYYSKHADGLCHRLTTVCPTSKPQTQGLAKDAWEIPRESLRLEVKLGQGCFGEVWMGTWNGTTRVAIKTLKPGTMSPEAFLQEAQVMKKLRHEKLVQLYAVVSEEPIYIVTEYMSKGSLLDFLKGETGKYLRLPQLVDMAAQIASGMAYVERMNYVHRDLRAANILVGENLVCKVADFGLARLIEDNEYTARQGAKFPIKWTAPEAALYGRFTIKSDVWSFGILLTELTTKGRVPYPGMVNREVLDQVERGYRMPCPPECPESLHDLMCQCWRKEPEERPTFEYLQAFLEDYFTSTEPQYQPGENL

## CN1CCN([C@@H]2CCCN(c3cnc(C(N)=O)c(Nc4cnn(C)c4)n3)C2)C1=O [Example D-209, 3-[(1-methyl-1H-pyrazol-4-yl)amino]-5-[(3R)-3-(3-methyl-2-oxoimidazolidin-1-yl)piperidin-1-yl]pyrazine-2-carboxamide]
[1]
  IC50: 100 to 1000 nM
[2]
  IC50: 1000 to 10000 nM
[3]
  IC50: > 10000 nM
[4]
  IC50: 10 to 100 nM
[5]
  IC50: 1000 to 10000 nM

## Cc1ncc(Nc2nc(N3CCC[C@@H](NC(=O)c4ccc(C5CC5)cc4)[C@H]3C)cnc2C(N)=O)s1 [Example D-210, 5-[(2R,3R)-3-(4-cyclopropylbenzamido)-2-methylpiperidin-1-yl]-3-[(2-methyl-1,3-thiazol-5-yl)amino]pyrazine-2-carboxamide]
[1]
  IC50: 100 to 1000 nM
[2]
  IC50: 1000 to 10000 nM
[3]
  IC50: 1000 to 10000 nM
[4]
  IC50: ≤ 10 nM
[5]
  IC50: 100 to 1000 nM

## C[C@@H]1[C@H](NC(=O)c2ccc(C3CC3)cc2)CCCN1c1cnc(C(N)=O)c(Nc2ccc(OC3CCN4CCCC4C3)cc2)n1 (stereo partly drawn) [Example D-211, 5-[(2R,3R)-3-(4-cyclopropylbenzamido)-2-methylpiperidin-1-yl]-3-{[4-(octahydroindolizin-7-yloxy)phenyl]amino}pyrazine-2-carboxamide]
[1]
  IC50: 10 to 100 nM
[2]
  IC50: 100 to 1000 nM
[3]
  IC50: 1000 to 10000 nM
[4]
  IC50: ≤ 10 nM
[5]
  IC50: 100 to 1000 nM

## C[C@@H]1[C@H](NC(=O)c2ccc(C3(O)CCCC3)cc2)CCCN1c1cnc(C(N)=O)c(Nc2cnn(C)c2)n1 [Example D-212, 5-[(2R,3R)-3-[4-(1-hydroxycyclopentyl)benzamido]-2-methylpiperidin-1-yl]-3-[(1-methyl-1H-pyrazol-4-yl)amino]pyrazine-2-carboxamide]
[1]
  IC50: 10 to 100 nM
[2]
  IC50: 100 to 1000 nM
[3]
  IC50: 1000 to 10000 nM
[4]
  IC50: ≤ 10 nM
[5]
  IC50: 100 to 1000 nM

## C[C@@H]1[C@H](NC(=O)c2ccc(C3CC3)cc2)CCCN1c1cnc(C(N)=O)c(Nc2cnn(CC(C)(C)O)c2)n1 [Example D-215, 5-[(2R,3R)-3-(4-cyclopropylbenzamido)-2-methylpiperidin-1-yl]-3-{[1-(2-hydroxy-2-methylpropyl)-1H-pyrazol-4-yl]amino}pyrazine-2-carboxamide]
[1]
  IC50: 100 to 1000 nM
[2]
  IC50: > 10000 nM
[3]
  IC50: > 10000 nM
[4]
  IC50: 100 to 1000 nM
[5]
  IC50: 1000 to 10000 nM

## C[C@@H]1[C@H](NC(=O)c2ccc3c(c2)OC(F)(F)O3)CCCN1c1cnc(C(N)=O)c(Nc2cnn(C)c2)n1 [Example D-216, 5-[(2R,3R)-3-(2,2-difluoro-2H-1,3-benzodioxole-5-amido)-2-methylpiperidin-1-yl]-3-[(1-methyl-1H-pyrazol-4-yl)amino]pyrazine-2-carboxamide]
[1]
  IC50: 10 to 100 nM
[2]
  IC50: 100 to 1000 nM
[3]
  IC50: 1000 to 10000 nM
[4]
  IC50: ≤ 10 nM
[5]
  IC50: 100 to 1000 nM

## C[C@@H]1[C@H](NC(=O)c2ccc(N(C)CCO)cc2)CCCN1c1cnc(C(N)=O)c(Nc2cnn(C)c2)n1 [Example D-217, 5-[(2R,3R)-3-{4-[(2-hydroxyethyl)(methyl)amino]benzamido}-2-methylpiperidin-1-yl]-3-[(1-methyl-1H-pyrazol-4-yl)amino]pyrazine-2-carboxamide]
[1]
  IC50: 10 to 100 nM
[2]
  IC50: 100 to 1000 nM
[3]
  IC50: 1000 to 10000 nM
[4]
  IC50: ≤ 10 nM
[5]
  IC50: 100 to 1000 nM

## CCN(CC)c1ccc(C(=O)N[C@@H]2CCCN(c3cnc(C(N)=O)c(Nc4cnn(C)c4)n3)[C@@H]2C)cc1 [Example D-218, 5-[(2R,3R)-3-[4-(diethylamino)benzamido]-2-methylpiperidin-1-yl]-3-[(1-methyl-1H-pyrazol-4-yl)amino]pyrazine-2-carboxamide]
[1]
  IC50: 10 to 100 nM
[2]
  IC50: 1000 to 10000 nM
[3]
  IC50: 1000 to 10000 nM
[4]
  IC50: ≤ 10 nM
[5]
  IC50: 100 to 1000 nM

## C[C@@H]1[C@H](NC(=O)c2ccc(OC3CC3)cc2)CCCN1c1cnc(C(N)=O)c(Nc2cnn(C)c2)n1 [Example D-219, 5-[(2R,3R)-3-(4-cyclopropoxybenzamido)-2-methylpiperidin-1-yl]-3-[(1-methyl-1H-pyrazol-4-yl)amino]pyrazine-2-carboxamide]
[1]
  IC50: 10 to 100 nM
[2]
  IC50: 1000 to 10000 nM
[3]
  IC50: 1000 to 10000 nM
[4]
  IC50: ≤ 10 nM
[5]
  IC50: 100 to 1000 nM

## CC(C)c1ccc(S(=O)(=O)N[C@@H]2CCCN(c3cnc(C(N)=O)c(Nc4cnn(C)c4)n3)[C@@H]2C)cc1 [Example D-220, 3-[(1-methyl-1H-pyrazol-4-yl)amino]-5-[(2R,3R)-2-methyl-3-[4-(propan-2-yl)benzenesulfonamido]piperidin-1-yl]pyrazine-2-carboxamide]
[1]
  IC50: 1000 to 10000 nM
[2]
  IC50: 1000 to 10000 nM
[3]
  IC50: > 10000 nM
[4]
  IC50: 1000 to 10000 nM
[5]
  IC50: > 10000 nM

## C[C@@H]1[C@H](NC(=O)c2ccc(C3(C(F)(F)F)CC3)cc2)CCCN1c1cnc(C(N)=O)c(Nc2cnn(C)c2)n1 [Example D-221, 3-[(1-Methyl-1H-pyrazol-4-yl)amino]-5-[(2R,3R)-2-methyl-3-{4-[1-(trifluoromethyl)cyclopropyl]benzamido}piperidin-1-yl]pyrazine-2-carboxamide]
[1]
  IC50: 100 to 1000 nM
[2]
  IC50: > 10000 nM
[3]
  IC50: 1000 to 10000 nM
[4]
  IC50: 10 to 100 nM
[5]
  IC50: 1000 to 10000 nM

## CC(C)c1ccc(C(=O)N[C@@H]2CCCN(c3cnc(C(N)=O)c(Nc4cnn(C)c4)n3)C2)cc1 [Example D-222, 3-[(1-Methyl-1H-pyrazol-4-yl)amino]-5-[(3R)-3-[4-(propan-2-yl)benzamido]piperidin-1-yl]pyrazine-2-carboxamide]
[1]
  IC50: 1000 to 10000 nM
[2]
  IC50: > 10000 nM
[3]
  IC50: > 10000 nM
[4]
  IC50: 10 to 100 nM
[5]
  IC50: > 10000 nM

## C[C@@H]1[C@H](NC(=O)c2ccc(C(C)(C)C)cc2F)CCCN1c1cnc(C(N)=O)c(Nc2cnn(C)c2)n1 [Example D-223, 5-[(2R,3R)-3-(4-tert-butyl-2-fluorobenzamido)-2-methylpiperidin-1-yl]-3-[(1-methyl-1H-pyrazol-4-yl)amino]pyrazine-2-carboxamide]
[1]
  IC50: 100 to 1000 nM
[2]
  IC50: > 10000 nM
[3]
  IC50: 1000 to 10000 nM
[4]
  IC50: 10 to 100 nM
[5]
  IC50: 1000 to 10000 nM
